# Experimental data from patent publication US20110054029A1, “WATER-SOLUBLE DIETARY FATTY ACIDS” (priority 2009, published 2011).
# Test system: Caco-2 cell monolayers
# Assay: Permeability across Caco-2 cell monolayers
# Assay type: in vitro ADME
# Details: Caco-2 monolayers after exposure to test article, 37° C.
# Method: To test the permeability of dietary fatty acids across Caco-2 cell monolayers, Caco-2 cell monolayers are grown to confluence on collagen-coated, microporous, polycarbonate membranes in 12-well Costar Transwell® plates.
# The test article is the aqueous dietary fatty acids formulation, and the dosing concentration is 2 μM in the assay buffer (HBSSg) as in the previous example. Cell monolayers are dosed on the apical side (A-to-B) or basolateral side (B-to-A) and incubated at 37° C. with 5% CO2 in a humidified incubator. Samples are taken from the donor chamber at 120 minutes, and samples from the receiver chamber are collected at 60 and 120 minutes. Each determination is performed in duplicate. Lucifer yellow permeability is also measured for each monolayer after being subjected to the test article to ensure no damage is inflicted to the cell monolayers during the permeability experiment. Permeability of samples of atenolol, propranolol and digoxin are also measured to compare with the permeability of the dietary fatty acids sample. All samples are assayed for dietary fatty acids, or corresponding comparative compounds, by LC/MS/MS using electrospray ionization. The apparent permeability (Papp) and percent recovery are calculated as is known in the art. […]
substance,measurement,value
Lucifer yellow,Papp (post-experiment monolayer integrity control),< 0.8 ×10⁻⁶ cm/s
